Measured values as given in patent publication US11427567B2, “Imidazolyl pyrimidinylamine compounds as CDK2 inhibitors” (Incyte Corporation, priority 2019, dated 2022).

Assays:
[1] = test system: Rb phosphorylated on serine 780 in CCNE1 amplified COV318 cells; assay: CDK2 pRb (S780) HTRF cellular assay; format: cell-based; details: Homo sapiens, overnight treatment, read-out: IC50 in p-RB S780 HTRF cellular assay
Description: CDK2 pRb (5780) HTRF cellular assay enables the quantitative detection of Rb phosphorylated on […] in CCNE1 amplified COV318 cells. The assay comprised two antibodies: Europium cryptate labeled anti-Phospho-Rb […] antibody (donor) and d2 labeled anti-Rb antibody (acceptor). In brief, COV318 cells were seeded into the wells of 96-well plate at a density of 25,000 per well with 9-point, 3-fold serial diluted compounds and cultured overnight at 37 degree with 5% CO2. The final concentrations of compounds start from 3 μM. […] After 2h of incubation at room temperature, HTRF signals were measured on the PHERAstar microplate reader (BMG Labtech), using 340 nm as excitation wavelength, a 620 nm filter for the Europium donor fluorescence, and a 665-nm filter for the acceptor fluorescence detection. HTRF signals were calculated as the HTRF ratio (ratio of fluorescence measured at 665 nm and 620 nm)×10000.

[2] = test system: CCNE1-non-amplified cell lines (COV504, OV56, Igrov1); assay: Cell cycle analysis by FACS upon CDK4/6 inhibition, CCNE1-non-amplified cell lines; format: cell-based, human
Description: (§1) The effect of CDK4/6-inhibition in CCNE1-amplified versus CCNE1-non-amplified cell lines was evaluated.
(§2) A similar experiment was performed in a larger set of CCNE1-amplified cell lines (COV318 and OVCAR3) and CCNE1-non-amplified cell lines (COV504, OV56, and Igrov1) (FIG. 6).
(§3) The complete growth medium was supplemented with 10% FBS, 0.1 mM non-essential amino acids, 2 mM L-glutamine, 100 units/mL penicillin G and 100 μg/mL streptomycin in 37° C. humidified incubator and an atmosphere of 5% CO2 in air. Fu-OV1 line was purchased from Leibniz-Institute DSMZ—German Collection of Microorganisms and Cell Cultures; MKN1 was purchased from Japanese Cancer Research Resources Bank; and the rest of cell lines were purchased from American Type Culture Collection.
(§4) Bulk DNA was stained with DAPI. Compound-treated and DMSO treated control cells were acquired with CytoFlex (Beckman Coulter) and were analyzed using the FlowJo software.

[3] = test system: CCNE1-amplified cell lines (COV318, OVCAR3); assay: Cell cycle analysis by FACS upon CDK4/6 inhibition, CCNE1-amplified cell lines; format: cell-based, human
Description: as §1, §2, §3, §4

[4] = test system: Rb phosphorylation at S780 in CCNE1-non-amplified cell lines (COV504 and OV56); assay: Western blot of Rb phosphorylation at S780, CCNE1-non-amplified cell lines; format: cell-based, human; details: various doses, 1 or 15 hours
Description: (§5) The effect of CDK4/6-inhibition on Rb phosphorylation at 5780 in CCNE1-amplified versus CCNE1-non-amplified cell lines was evaluated. […] One or 15 hours after treatment, the cells were harvested and total protein was extracted and analyzed by western blot (FIG. 8).
(§6) Whole cell extracts were prepared using RIPA buffer (Thermo Scientific, 89900) with a Halt Protease and Phosphatase Inhibitor Cocktail (Thermo Scientific, 78440). Protein concentration was quantified with a BCA Protein Assay Kit (Thermo Scientific, 23225) and 40 μg of protein lysates were loaded for SDS-PAGE using precast gradient gels (Bio-Rad, Hercules, No. 456-1094). Samples were diluted in 5× Laemmli buffer (300 mM Tris-HCl pH 6.8, 10% SDS (w/v), 5% 2-mercaptoethanol, 25% glycerol (v/v), 0.1% bromophenol blue w/v) and boiled for 5 minutes. […] of proteins were separated by 8-15% SDS-PAGE and transferred onto polyvinylidene fluoride (PVDF) membranes. Unspecific binding sites on the PVDF membranes were blocked with 5% non-fat milk in TBST (20 mM Tris-HCl, pH 7.6, 137 mM NaCl, 1% Tween-20). […] Images were captured by Luminescence/Fluorescence Imaging System Odyssey CLx Imager (LI-COR).

[5] = test system: Rb phosphorylation at S780 in CCNE1-amplified cell lines (OVCAR3 and COV318); assay: Western blot of Rb phosphorylation at S780, CCNE1-amplified cell lines; format: cell-based, human; details: various doses, 1 or 15 hours
Description: as §5, §6

[6] = test system: CCNE1 amplified COV318 cells; assay: Cell cycle analysis by FACS after p16 knockdown and CDK2 inhibitor treatment; format: cell-based, human; details: 100 nM, 16 hours
Description: To confirm the role of p16 in CDK2-sensitivity of CCNE-amplified cells, COV318 cells were treated with control or p16-specific siRNA.
Human cyclin E1 (CCNE1) amplified ovarian cell lines OVCAR3, COV318, Fu-OV1, endometrial cell line KLE, gastric cell lines MKN1, AGS, NCIN87, and CCNE1 non-amplified ovarian cell lines COV504, OV56, Igrov1 were cultured in RPMI 1640 medium. The complete growth medium was supplemented with 10% FBS, 0.1 mM non-essential amino acids, 2 mM L-glutamine, 100 units/mL penicillin G and 100 μg/mL streptomycin in 37° C. humidified incubator and an atmosphere of 5% CO2 in air. Fu-OV1 line was purchased from Leibniz-Institute DSMZ—German Collection of Microorganisms and Cell Cultures; MKN1 was purchased from Japanese Cancer Research Resources Bank; and the rest of cell lines were purchased from American Type Culture Collection. For transfection, cells were seeded into 6-well for 24 hours and transiently transfected by Lipofectamine 2000 Reagent (Thermo Fisher, 11668027). […]
Bulk DNA was stained with DAPI. Compound-treated and DMSO treated control cells were acquired with CytoFlex (Beckman Coulter) and were analyzed using the FlowJo software. […]

Structure (SMILES)	IC50 [1]	Inhibition of proliferation (cell cycle analysis by FACS) ([2]; CCNE1-non-amplified cells (COV504), increasing concentrations, 16 hours)	Percentage of cells at the S phase as compared to DMSO ([2]; COV504, OV56, Igrov1, 16 hours after treatment)	Inhibition of proliferation (cell cycle analysis by FACS) ([3]; CCNE1-amplified cells (OVCAR3), increasing concentrations, 16 hours)	Percentage of cells at the S phase as compared to DMSO ([3]; COV318 and OVCAR3, 16 hours after treatment)	Rb phosphorylation at S780 (western blot) [4]	Rb phosphorylation at S780 (western blot) [5]	Percentage of S phase cells ([6]; control siRNA-treated COV318 cells)	Percentage of S phase cells as compared to DMSO control ([6]; p16 knocked down COV318 cells)
CC(=O)c1c(C)c2cnc(Nc3ccc(N4CCNCC4)cn3)nc2n(C2CCCC2)c1=O [Palbociclib]	> 3000 nM	dose-dependent inhibition of the proliferation	decreased in CCNE1-non-amplified cell lines in a dose-dependent fashion	not in CCNE1-amplified cells	not significantly different	blocked Rb phosphorylation	not in CCNE1-amplified cell lines		
C[C@@]1(O)CCC[C@H]1n1c(=O)ccc2cnc(NC3CCN(S(C)(=O)=O)CC3)nc21 [Compound A, 8-((1R,2R)-2-hydroxy-2-methylcyclopentyl)-2-((1-(methylsulfonyl)piperidin-4-yl)amino)pyrido[2,3-d]pyrimidin-7(8H)-one]	37 nM							significantly decreased	not significantly decreased
